Measured values: patent US20050106745A1, “Combination of solubility and membrane permeability measurement methods for profiling of chemical compounds” (AGY Therapeutics, Inc., priority 2003, published 2005)
In brackets after ≈: the same amount, converted by molar mass. Counter-ions that a name gives are not always drawn. Like-named read-outs stand apart in the source and are kept apart here.

What was measured:
[1] = rat model, literature (Kelder et al. 1999); cited from earlier work
[2] = BBB-PAMPA effective permeability (Sol-PAMPA); details: for Papp at 16 h: PAMPA; for AGY Ranking (CNS+/CNS−): ranking from BBB-Sol-PAMPA Pe; for Pe × 10^−6 (effective BBB permeability): BBB-PAMPA, pH 7.4 to 7.4, input at solubility limit, 16 hours, n=7
physchem = details: for solubility kinetic at 90 min / solubility at 90 min: kinetic from dmso stock
Procedure: The aqueous and aqueous/methanol solutions were shaken for 90 minutes at room temperature. Using a 96-tip Biomek FX liquid handling system (Beckman Coulter, Fullterton, Calif.), the solutions were transferred to a MultiScreen-Solubility 96-well filterplate (MSSLBPC10, Millipore, Mass.), vacuum filtered, and collected into a clean 96-deepwell plate. […] The sample wells were diluted in the UV/Vis plate with pre-dispensed methanol (20% v/v) for spectroscopic consistency. The remaining portion of the filtrate was sealed and kept in a cool, dark place to be used within 2 hours in the permeability assay. […] The absorption spectra were then corrected for variance in path length by the PathCheck™ algorithm in the SoftMaxPro® software. Next, the optical density (OD) at an appropriate wavelength (λ) was determined for each compound by the analysis algorithm as follows: the UV-Visible spectra were analyzed with a program written in HPBASIC for Windows (TransEra Corporation, Orem, Utah). Briefly, from the spectrum of each well a heuristically matched, scaled and appropriately shifted baseline was subtracted. The locations (λ) and the values of all the peaks [OD(λ)] were then determined. […] In addition, built in user interface tools offered a convenient way to review and manually reassign the λ values to address special cases. When no peaks were found in the spectra, the OD values at 265 nm were used.
For the solubility calculation, a consensus λ was determined for the sample and reference spectra and the corresponding OD values were used in equation (1). The concentrations of the compounds in solution were determined by the following formula: [formula] where OD(λ)sample and OD(λ)Reference are the optical densities at a given wavelength for each compound and [Reference] is the same compound at a known reference concentration.

[3] = cited from earlier work
[4] = PAMPA
[5] = cited from earlier work; remark: listed apart in the source
in vitro = details: PAMPA, pH 7.4

SMILES: CN(C)CCC=C1c2ccccc2CCc2ccccc21 [Amitriptyline HCl, amitriptyline]
- [Brain]/[Blood] [1]: 9.55
- Papp at 16 h ([2]; pH 7.4): 12.8 ×10⁻⁶ cm/s
- AGY Ranking (CNS+/CNS−) [2]: + (CNS+ compounds have a Pe>2.0×10^−6 cm/sec)
- solubility kinetic at 90 min (physchem; pH 7.4, aqueous buffer): 163 µM

SMILES: Cn1c(=O)c2c(ncn2C)n(C)c1=O [Caffeine, caffeine]
- AGY Ranking (CNS+/CNS−) [2]: − (CNS- compounds have a Pe<2.0×10^−6 cm/sec)

SMILES: NC(=O)N1c2ccccc2C=Cc2ccccc21 [Carbamazepine, carbamazepine]
- [Brain]/[Blood] [1]: 1.00
- Papp at 16 h ([2]; pH 7.4): 12.9 ×10⁻⁶ cm/s
- AGY Ranking (CNS+/CNS−) [2]: + (CNS+ compounds have a Pe>2.0×10^−6 cm/sec)
- solubility kinetic at 90 min (physchem; pH 7.4, aqueous buffer): 253 µM (≈ 59.8 µg/mL)

SMILES: Clc1cccc(Cl)c1N=C1NCCN1 [Clonidine, clonidine]
- [Brain]/[Blood] [1]: 1.29
- Papp at 16 h ([2]; pH 7.4): 2.01 ×10⁻⁶ cm/s
- AGY Ranking (CNS+/CNS−) [2]: + (CNS+ compounds have a Pe>2.0×10^−6 cm/sec)
- solubility kinetic at 90 min (physchem; pH 7.4, aqueous buffer): 248 µM (≈ 57.1 µg/mL)

SMILES: CNCCCN1c2ccccc2CCc2ccccc21 [Desipramine, desipramine]
- [Brain]/[Blood] [1]: 10.00
- Papp at 16 h ([2]; pH 7.4): 17.9 ×10⁻⁶ cm/s
- AGY Ranking (CNS+/CNS−) [2]: + (CNS+ compounds have a Pe>2.0×10^−6 cm/sec)
- Literature (solubility) ([3]; pH 7.4): 155 µM
- solubility at 90 min (physchem; pH 3, aqueous buffer): > 350 µM
- solubility at 90 min (physchem; pH 5, aqueous buffer): > 350 µM
- solubility at 90 min (physchem; pH 7.4, aqueous buffer): > 350 µM
- solubility kinetic at 90 min (physchem; pH 7.4, aqueous buffer): 274 µM (≈ 73 µg/mL)
- solubility at 90 min (physchem; pH 9, aqueous buffer): > 350 µM

SMILES: CN1CC[C@@]23CCCC[C@@H]2[C@@H]1Cc1ccc(O)cc13 [Dextrophan, dextrophan]
- AGY Ranking (CNS+/CNS−) [4]: + (key: CNS+ compounds have a Pe>2.0×10^−6 cm/sec; CNS- compounds have a Pe<2.0×10^−6 cm/sec)
- Pe × 10^−6 (effective BBB permeability) ([4]; pH 7.4): 3.14 ×10^−6 cm/sec
- In Vivo CNS +/− [5]: +
- pH 7.4 Solubility (physchem; pH 7.4, Table 2 test set, n=7): 300 μM

SMILES: O=C(O)Cc1ccccc1Nc1c(Cl)cccc1Cl [Diclofenac, diclofenac]
- Papp at 16 h [2]: ~10 ×10⁻⁶ cm/s
- Literature (solubility) ([3]; pH 5): 30 µM
- Literature (solubility) ([3]; pH 7.4): >350 µM
- Literature (solubility) ([3]; pH 9): >350 µM
- solubility at 90 min (physchem; pH 3, aqueous buffer): 9 µM (≈ 2.67 µg/mL)
- solubility at 90 min (physchem; pH 5, aqueous buffer): 18 µM (≈ 5.33 µg/mL)
- solubility at 90 min (physchem; pH 7.4, aqueous buffer): 274 µM (≈ 81.1 µg/mL)
- solubility at 90 min (physchem; pH 9, aqueous buffer): 324 µM (≈ 96 µg/mL)

SMILES: COCCCC/C(=N\OCCN)c1ccc(C(F)(F)F)cc1 [Fluvoxamine, fluvoxamine]
- solubility kinetic at 90 min (physchem; pH 7.4, aqueous buffer): 207 µM (≈ 65.9 µg/mL)

SMILES: Cc1cc(NC(=O)C2=C(O)c3ccccc3S(=O)(=O)N2C)no1 [Isoxicam, isoxicam]
- Papp at 16 h ([2]; pH 7.4): 0.71 ×10⁻⁶ cm/s
- AGY Ranking (CNS+/CNS−) [2]: − (CNS- compounds have a Pe<2.0×10^−6 cm/sec)
- solubility kinetic at 90 min (physchem; pH 7.4, aqueous buffer): 322 µM (≈ 108 µg/mL)

SMILES: CCn1cc(C(=O)O)c(=O)c2cc(F)c(N3CCNC(C)C3)c(F)c21 (centres unmarked) [Lomafloxacin, lomafloxacin]
- Pe × 10^−6 (effective BBB permeability) [2]: 0.17 ×10^−6 cm/sec
- AGY Ranking (CNS+/CNS−) [2]: − (CNS- compounds have a Pe<2.0×10^−6 cm/sec)
- pH 7.4 Solubility (physchem; 90 min, pH 7.4): 288 μM

SMILES: CN(C)C(=O)C(CCN1CCC(O)(c2ccc(Cl)cc2)CC1)(c1ccccc1)c1ccccc1 [Loperamide]
- AGY Ranking (CNS+/CNS−) [2]: − (CNS- compounds have a Pe<2.0×10^−6 cm/sec)
- solubility kinetic at 90 min (physchem; pH 7.4, aqueous buffer): 165 µM (≈ 78.7 µg/mL)
- Papp (in vitro): 1.07 ×10⁻⁶ cm/s

SMILES: C[C@]12N[C@H](Cc3ccccc31)c1ccccc12 [MK-801, dizocilpine]
- solubility kinetic at 90 min (physchem; pH 7.4, aqueous buffer): 212 µM (≈ 46.9 µg/mL)

SMILES: CC(C)(C)[N+]([O-])=Cc1ccccc1 [N-tert-Butyl-a-phenylnitrone, N-tert-Butyl-alpha-phenylnitrone]
- AGY Ranking (CNS+/CNS−) [2]: + (CNS+ compounds have a Pe>2.0×10^−6 cm/sec)

SMILES: Nc1ccc(/N=N/c2ccccc2)c(N)n1 [Phenazopyridine, phenazopyridine]
- Literature (solubility) ([3]; pH 3): >350 µM
- Literature (solubility) ([3]; pH 5): 150 µM
- Literature (solubility) ([3]; pH 7.4): 58 µM
- Literature (solubility) ([3]; pH 9): 49 µM
- solubility at 90 min (physchem; pH 3, aqueous buffer): 332 µM (≈ 70.8 µg/mL)
- solubility at 90 min (physchem; pH 5, aqueous buffer): 89 µM (≈ 19 µg/mL)
- solubility at 90 min (physchem; pH 7.4, aqueous buffer): 86 µM (≈ 18.3 µg/mL)
- solubility at 90 min (physchem; pH 9, aqueous buffer): 71 µM (≈ 15.1 µg/mL)

SMILES: CN1C(C(=O)Nc2ccccn2)=C(O)c2ccccc2S1(=O)=O [Piroxicam, piroxicam]
- Literature (solubility) ([3]; pH 3): 32 µM
- Literature (solubility) ([3]; pH 5): 32 µM
- Literature (solubility) ([3]; pH 7.4): 300 µM
- Literature (solubility) ([3]; pH 9): >350 µM
- solubility at 90 min (physchem; pH 3, aqueous buffer): 55 µM (≈ 18.2 µg/mL)
- solubility at 90 min (physchem; pH 5, aqueous buffer): 66 µM (≈ 21.9 µg/mL)
- solubility at 90 min (physchem; pH 7.4, aqueous buffer): 257 µM (≈ 85.2 µg/mL)
- solubility at 90 min (physchem; pH 9, aqueous buffer): 336 µM (≈ 111 µg/mL)

SMILES: CC(C)NCC(O)COc1cccc2ccccc12 (centres unmarked) [Propranolol, s-propranolol]
- Literature (solubility) ([3]; pH 7.4): 240 µM
- solubility at 90 min (physchem; pH 3, aqueous buffer): > 350 µM
- solubility at 90 min (physchem; pH 5, aqueous buffer): > 350 µM
- solubility at 90 min (physchem; pH 7.4, aqueous buffer): > 350 µM
- solubility at 90 min (physchem; pH 9, aqueous buffer): > 350 µM

SMILES: c1ccc2nc(N3CCNCC3)ccc2c1 [Quipazine]
- Papp at 16 h ([2]; pH 7.4): 14.9 ×10⁻⁶ cm/s
- AGY Ranking (CNS+/CNS−) [2]: + (CNS+ compounds have a Pe>2.0×10^−6 cm/sec)
- solubility kinetic at 90 min (physchem; pH 7.4, aqueous buffer): 239 µM (≈ 51 µg/mL)

SMILES: CNC(=C[N+](=O)[O-])NCCSCc1ccc(CN(C)C)o1 [Ranitidine HCl, ranitidine]
- [Brain]/[Blood] [1]: 0.06
- Papp at 16 h ([2]; pH 7.4): 0.02 ×10⁻⁶ cm/s
- AGY Ranking (CNS+/CNS−) [2]: − (CNS- compounds have a Pe<2.0×10^−6 cm/sec)
- solubility kinetic at 90 min (physchem; pH 7.4, aqueous buffer): 174 µM

SMILES: Cl.NC1CCN(c2cccc(Cl)n2)CC1 [SR-57227A]
- Pe × 10^−6 (effective BBB permeability) [2]: 6.12 ×10^−6 cm/sec
- AGY Ranking (CNS+/CNS−) [2]: + (CNS+ compounds have a Pe>2.0×10^−6 cm/sec)
- pH 7.4 Solubility (physchem; pH 7.4, Table 2 test set, n=7): 294 μM

SMILES: Cn1c(=O)c2[nH]cnc2n(C)c1=O [Theophylline, theophylline]
- Literature (solubility) ([3]; pH 7.4): >350 µM
- solubility at 90 min (physchem; pH 3, aqueous buffer): 330 µM (≈ 59.5 µg/mL)
- solubility at 90 min (physchem; pH 5, aqueous buffer): 337 µM (≈ 60.7 µg/mL)
- solubility at 90 min (physchem; pH 7.4, aqueous buffer): 290 µM (≈ 52.2 µg/mL)
- solubility at 90 min (physchem; pH 9, aqueous buffer): > 350 µM

SMILES: c1cc(CN2CCCCC2)cc(OCCCNc2nc3ccccc3s2)c1 [Zolantidine]
- [Brain]/[Blood] [1]: 1.38
- Papp at 16 h ([2]; pH 7.4): 12.5 ×10⁻⁶ cm/s
- AGY Ranking (CNS+/CNS−) [2]: + (CNS+ compounds have a Pe>2.0×10^−6 cm/sec)
- solubility kinetic at 90 min (physchem; pH 7.4, aqueous buffer): 108 µM (≈ 41.2 µg/mL)
